From patent US12595246B2, “Crystalline and amorphous forms of N-(5-((4-ethylpiperazin-1-yl)methyl)pyridine-2-yl)-5-fluoro-4-(3-isopropyl-2-methyl-2H-indazol-5-yl)pyrimidin-2-amine and its salts, and preparation methods and therapeutic uses thereof” (BETA PHARMA, INC., priority 2019, dated 2026)

Assay: Dynamic vapor sorption (DVS) isotherm analysis, with XRPD before and after DVS
Format: physicochemical
Conditions: for change of crystalline form after DVS (XRPD): XRPD before and after DVS; for hygroscopicity rating by DVS isotherm analysis: rating in words, based on uptake at 80% RH

| SMILES | change of crystalline form after DVS (XRPD) | hygroscopicity by DVS isotherm analysis (uptake at 80% RH) [%] | hygroscopicity rating by DVS isotherm analysis |
| --- | --- | --- | --- |
| CCN1CCN(Cc2ccc(Nc3ncc(F)c(-c4cc(F)c5nc(C)n(C(C)C)c5c4)n3)nc2)CC1.Cc1ccc(S(=O)(=O)O)cc1 | no change of crystalline form | 1.67 | slightly hygroscopic |
| CCN1CCN(Cc2ccc(Nc3ncc(F)c(-c4cc(F)c5nc(C)n(C(C)C)c5c4)n3)nc2)CC1.Cl [1⋅HCl (1:1; Form A)] | no change of crystalline form | 3.64 | hygroscopic |
| CCN1CCN(Cc2ccc(Nc3ncc(F)c(-c4cc(F)c5nc(C)n(C(C)C)c5c4)n3)nc2)CC1.O=S(=O)(O)O [Compound 1⋅H2SO4 (1:1; Form A)] | some change of crystalline form | 26.42 | very hygroscopic |
| CCN1CCN(Cc2ccc(Nc3ncc(F)c(-c4cc(F)c5nc(C)n(C(C)C)c5c4)n3)nc2)CC1.O=P(O)(O)O [Compound 1⋅H3PO4 (1:1)] | some change of crystalline form | 3.16 | hygroscopic |
| CCN1CCN(Cc2ccc(Nc3ncc(F)c(-c4ccc5nn(C)c(C(C)C)c5c4)n3)nc2)CC1 [freebase of 1 (Form D)] | no change of crystalline form | 5.13 | hygroscopic |
